Measured values taken from PubChem BioAssay AID1508612.

Assay: passive permeability, PAMPA, ADME assay (AID 1508612)
Conditions: pH 7.4, 30.0 min, 50.0 µM

Row | Structure (SMILES) | Papp [×10⁻⁶ cm/s]
1 | Cc1cnc(-c2ccccc2C2COC2)nc1NCC1CCN(c2cccnc2)CC1 | 3.48
2 | CCOc1cccc(C(=O)Nc2nc3c(s2)CC(C(C)(C)C)CC3)c1 (configuration not stated) | < 1
3 | COc1ccc(OC)c(N2C(=O)C(Cl)=C(N3CCCCC3)C2=O)c1 | > 1000
4 | COc1ccc(C2Nc3ccccc3C(=O)N2Cc2ccco2)cc1 (configuration not stated) | 799
5 | O=C(Nc1ccc2oc(-c3ccccc3F)nc2c1)c1ccc([N+](=O)[O-])o1 | 38.4
6 | COc1ccc(-n2nc(C3CCN(C(=O)Cc4ccc(F)cc4)CC3)[nH]c2=O)cc1 | 540
7 | C=CC(=O)Nc1cccc(Oc2nc(Nc3ccc(N4CCN(C)CC4)cc3)ncc2Cl)c1 | > 1000
8 | N#Cc1ccc(S(=O)(=O)Nc2cnccc2C(=O)Nc2nc(-c3ccccc3)cs2)cc1 | 279
9 | Fc1ccc(Nc2ccnc(-c3ccncc3)n2)cc1F | 371
10 | Nc1ncc(S(=O)(=O)N2CCN(c3ccccc3)CC2)cn1 | 13.5
11 | O=C(CNC12CC3CC(CC(C3)C1)C2)c1ccc(Cl)cc1 | 635
12 | COc1ccc(/C=C2/C(=O)Nc3ccccc32)cc1O | > 1000
13 | N=c1c2c(n(Cc3ccccc3)c3c1CCC3)CCC2 | < 1
14 | COc1ccccc1-c1nc(NCc2cnc(C)cn2)c2ccccc2n1 | > 1000
15 | CCc1ccc(S(=O)(=O)Nc2cnccc2C(=O)Nc2nc(-c3ccccc3)cs2)cc1 | 300
16 | Cc1cc(NC(=S)N2CCN(c3cccc(C(F)(F)F)c3)CC2)nc2ccccc12 | 31.5
17 | Cc1cc(NS(=O)(=O)c2ccc(NC(=O)Cc3ccc(Cl)c(Cl)c3)cc2)no1 | 30.2
18 | O=C(Nc1cc(C(F)(F)F)ccc1N1CCOCC1)c1n[nH]c(=O)c2ccccc12 | 53.5
19 | CCOc1ccc(CNc2ccc3c(c2)ncn3C)cc1 | > 1000
20 | COC(=O)[C@@]12OC[C@]34[C@H]([C@@H](O)[C@@H]1O)[C@@]1(C)CC(=O)C(O)=C(C)[C@@H]1C[C@H]3OC(=O)[C@H](OC(=O)/C=C(\C)C(C)C)[C@@H]24 | 120
21 | O=C(Nc1nc(-c2ccc(F)cc2)cs1)c1ccncc1NS(=O)(=O)c1ccc(F)cc1 | 755
22 | COc1ccccc1Nc1ccnc(N2CCN(C(=O)c3ccc(F)cc3)CC2)n1 | > 1000
23 | CN(C)C(=O)c1cc(-c2ccc(S(C)(=O)=O)cc2)c2cnn(C)c2n1 | 22.6
24 | Cc1cccc(-n2c(C)cc(C=C(C#N)C#N)c2C)c1 | 43
25 | COc1ccc(NC(=O)c2ccc[nH]2)cc1S(=O)(=O)Nc1ccc(Br)cc1 | > 1000
26 | O=C(NCCCn1ccnc1)c1nc(-c2ccccc2)cc2[nH]ccc12 | 597

Row | Structure (SMILES) | Papp [×10⁻⁶ cm/s]
27 | CC(C)(C)c1cc(NC(=O)Nc2ccc(-c3cn4c(n3)sc3cc(OCCN5CCOCC5)ccc34)cc2)no1 | < 1
28 | Cc1ccc(-c2csc(NC(=O)c3ccccc3NS(=O)(=O)c3ccc(C)cc3)n2)cc1 | 35.6
29 | O=C(c1ccc2c(c1)ncn2-c1cccc(C(F)(F)F)c1)N1CCCCC1 | > 1000
30 | COc1ccc(C(=O)NC2CCCc3c2[nH]c2ccccc32)cc1OC (configuration not stated) | 38.1
31 | S=C(NCCCc1cnc[nH]1)NCCCN(Cc1ccc(Cl)c(Cl)c1)c1ccc(Br)cn1 | 14
32 | CC(O)(C#Cc1ccc2c(c1)N(c1nc(N)ncc1Cl)CC2)c1nccs1 (configuration not stated) | 516
33 | Oc1ccc(CNc2ccc(F)cc2F)c2cccnc12 | 178
34 | COc1ccccc1OCCNCC(O)COc1cccc2[nH]c3ccccc3c12 (configuration not stated) | > 1000
35 | CN(Cc1ccccc1)C(=O)c1ccc(S(=O)(=O)Nc2ccccc2)cc1 | 288
36 | N#Cc1cccc(S(=O)(=O)Nc2cnccc2C(=O)Nc2nc(-c3ccccc3)cs2)c1 | 189
37 | Cc1cc(Cl)ccc1COc1ccnn1-c1cc(C(=O)O)ccn1 | 5.16
38 | COC(=O)CNC(=O)c1nc(-c2ccc(Cl)nc2)c2cnccn12 | 103
39 | CC(C)(C)C1CCc2c(sc(NC(=O)c3ccncc3)c2C(N)=O)C1 (configuration not stated) | 581
40 | NCC(=O)Nc1cncc(-c2nn3c(=O)cc(N4CCNCC4)nc3s2)c1 | < 1
41 | Cc1ccc(S(=O)(=O)Nc2ccccc2C(=O)Nc2ccc(-c3ccccc3)nn2)cc1 | > 1000
42 | Fc1cc(Nc2nc(-c3ccncc3)nc3ccccc23)ccc1OC(F)(F)F | 552
43 | Cc1nnn(C)c1-c1cnc2c3ccc(C(C)(C)O)cc3n([C@H](c3ccccc3)C3CCOCC3)c2c1 | 746
44 | CCOC(=O)N1CCN(Cc2nc3cc(NC(=O)CC(C)C)ccc3n2C(C)C)CC1 | 613
45 | O=[S+]([O-])(Nc1ccc(C2CCNCC2)cc1)c1ccc(NCc2ccc(Cl)cc2O)cc1 | 2.21
46 | CCOC(=O)c1ccc(NC(=O)c2sc3nc4c(cc3c2N)N2CCC4CC2)cc1 | 928
47 | OC(CCN1CCCCC1)c1ccc(-c2ccccc2)cc1 (configuration not stated) | > 1000
48 | CCCCCn1c(=O)[nH]c2cc(C(=O)NCCCN3CCC(C)CC3)ccc2c1=O | 91.7
49 | CN(C)c1ccc(-c2cc[nH]c(=O)c2N)cc1 | 116
50 | Fc1ccc(Nc2nc(-c3ccncc3Cl)nc3ccccc23)cc1F | 72.2
51 | CCOC(=O)N1CCN(C(=O)Cn2sc3nc(C)cc(C)c3c2=O)CC1 | 47.1
52 | COC(C)(C)CCn1nc(Nc2c(C)cccc2C)c2cnc(Nc3ccc(OCCN4CCCC4)c(F)c3)nc21 | > 1000
